Laboratory results: ChEMBL document CHEMBL1130643, “Synthesis of benzanilide derivatives as dual acting agents with alpha 1-adrenoceptor antagonistic action and steroid 5-alpha reductase inhibitory activity” (Bioorg Med Chem Lett, 1998)

Tests used:
[1] = target: T1, Steroid 5-alpha-reductase (Rattus norvegicus, UniProt P24008+P31214); test: Inhibitory activity against prostatic 5-alpha reductase in Sprague-Dawley rat; format: protein assay
T1 sequence (P24008 whole entry): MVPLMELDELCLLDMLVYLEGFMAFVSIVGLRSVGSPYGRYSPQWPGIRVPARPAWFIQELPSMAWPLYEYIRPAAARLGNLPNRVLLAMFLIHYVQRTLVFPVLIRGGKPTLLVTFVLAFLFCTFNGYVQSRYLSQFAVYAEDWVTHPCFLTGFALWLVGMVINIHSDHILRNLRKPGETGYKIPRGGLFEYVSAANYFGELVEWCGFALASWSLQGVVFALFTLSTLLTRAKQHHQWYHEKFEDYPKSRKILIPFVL
T1 sequence (P31214 whole entry): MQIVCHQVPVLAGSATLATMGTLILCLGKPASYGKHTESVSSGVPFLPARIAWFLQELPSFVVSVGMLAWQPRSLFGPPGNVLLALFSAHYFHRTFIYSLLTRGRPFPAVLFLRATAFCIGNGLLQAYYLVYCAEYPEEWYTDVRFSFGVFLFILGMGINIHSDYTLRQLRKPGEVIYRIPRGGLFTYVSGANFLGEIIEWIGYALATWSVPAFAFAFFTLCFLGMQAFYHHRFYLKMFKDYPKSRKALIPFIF

[2] = target: Adrenergic receptor alpha-1 (Oryctolagus cuniculus); test: Inhibition of phenylephrine-induced contractions in white rabbit prostate.

Row | Compound | IC50 [1] | pA2 [2]
1 | COc1ccccc1N1CCN(CCCCOc2ccc(C(=O)Nc3ccccc3OCCCC(=O)O)cc2)CC1 | 43000 nM | 7.1
2 | COc1ccccc1N1CCN(CCCCC(Oc2ccc(C(=O)Nc3ccccc3OCCCC(=O)O)cc2)c2ccccc2)CC1 (stereo not given) | 910 nM | 6.6
3 | COc1ccccc1N1CCN(CCC(Oc2ccc(C(=O)Nc3ccccc3OCCCC(=O)O)cc2)c2ccc(C)cc2)CC1 (stereo not given) | 67 nM | 7.8
4 | COc1ccccc1N1CCN(CCC(Oc2ccc(C(=O)Nc3ccccc3OCCCC(=O)O)cc2)c2ccc(CC(C)C)cc2)CC1 (stereo not given) | 39 nM | 5.7
5 | COc1ccccc1N1CCN(CCC(Oc2ccc(C(=O)Nc3ccccc3OCCCC(=O)O)cc2)c2ccc(Br)cc2)CC1 (stereo not given) | 210 nM | 7
6 | COc1ccccc1NC(=O)c1ccc(OCCCN2CCN(c3ccccc3OC)CC2)cc1 |  | 7.1
7 | CCc1ccc(C(CCN2CCN(c3ccccc3OC)CC2)Oc2ccc(NC(=O)c3ccccc3OCCCC(=O)O)cc2)cc1 (stereo not given) | 130 nM | 6.7
8 | COc1ccccc1N1CCN(CCCOc2ccc(C(=O)Nc3ccccc3OCCCC(=O)O)cc2)CC1 | 41000 nM | 7
9 | COc1ccccc1N1CCN(CCC(Oc2ccc(C(=O)Nc3ccccc3OCCCC(=O)O)cc2)c2cccc(C)c2)CC1 (stereo not given) | 360 nM | 6.6
10 | COc1ccccc1N1CCN(CCC(Oc2ccc(NC(=O)c3ccccc3OCCCC(=O)O)cc2)c2ccc(CC(C)C)cc2)CC1 (stereo not given) | 96 nM | 5.2
11 | COc1ccccc1N1CCN(CCC(Oc2ccc(NC(=O)c3ccccc3OCCCC(=O)O)cc2)c2ccc(C)cc2)CC1 (stereo not given) | 440 nM | 7.1
12 | CCc1ccc(C(CCN2CCN(c3ccccc3OC)CC2)Oc2ccc(C(=O)Nc3ccccc3OCCCC(=O)O)cc2)cc1 (stereo not given) | 70 nM | 7.4
13 | COc1ccccc1N1CCN(CCC(Oc2ccc(NC(=O)c3ccccc3OCCCC(=O)O)cc2)c2ccccc2)CC1 (stereo not given) | 730 nM | 7.1
14 | COc1ccccc1N1CCN(CCOc2ccc(C(=O)Nc3ccccc3OCCCC(=O)O)cc2)CC1 | 29000 nM | 6.6
15 | COc1ccccc1N1CCN(CCCCCCOc2ccc(C(=O)Nc3ccccc3OCCCC(=O)O)cc2)CC1 | 9500 nM | 7
16 | COc1ccc(C(CCN2CCN(c3ccccc3OC)CC2)Oc2ccc(C(=O)Nc3ccccc3OCCCC(=O)O)cc2)cc1 (stereo not given) | 170 nM | 6.7
17 | COc1ccccc1N1CCN(CCC(Oc2ccc(C(=O)Nc3ccccc3OCCCC(=O)O)cc2)c2ccccc2)CC1 (stereo not given) | 1000 nM | 7.6
18 | COc1ccccc1N1CCN(CCCC(Oc2ccc(C(=O)Nc3ccccc3OCCCC(=O)O)cc2)c2ccccc2)CC1 (stereo not given) | 750 nM | 6.5
